Data on 11 compounds can be found in ChEMBL document CHEMBL1201862, “PubChem BioAssay data set” (2004).

SMILES strings stand for the structures.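 48-hour exposure; five concentrations; linearly interpolated endpoints. GI50 is the concentration that inhibits growth by half.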 Active and inactive are the calls of the source. Cut-off read from the data, not from the text of the source: active = GI50 up to about 1.1 µM and inactive = higher.

Common to all, as to experiment: NCI tumour cell line growth inhibition, 48 h
Assay [1] deals with A549.
Assay [2] relates to CCRF-CEM.
The test system of assay [3] is COLO 205.
Assay [4] concerns DLD-1.
Assay [5] relates to HCT-116.
In assay [6] the test system is HCT-15.
Assay [7] relates to HOP-62.
Assay [8] deals with HOP-92.
Assay [9] concerns IGROV-1.
Assay [10] has as its system LOX IMVI.
Assay [11] concerns Malme-3M.
Assay [12] deals with NCI-H460.
Assay [13] has as its system OVCAR-3.
Assay [14] has as its system OVCAR-4.
The subject of assay [15] is SK-MEL-28.
The subject of assay [16] is TK-10.
In assay [17] the test system is UO-31.
In assay [18] the test system is SK-MEL-5.
Assay [19] concerns SNB-75.
In assay [20] the test system is BT-549.

For `Nn1c(S)nnc1N/N=C1/C(=O)Nc2ccccc21`, the GI50 was 83.2 µM (inactive) in assay [1]; 47.3 µM (inactive) in assay [2]; > 100 µM (inactive) in assay [3]; 48.9 µM (inactive) in assay [4]; 53.1 µM (inactive) in [5]; 57.7 µM in assay [6]. Besides, the GI50 in assay [7] was 64.9 µM (inactive); in assay [8], 56.1 µM (inactive); in [9], 59.2 µM (inactive); in assay [10], 35.4 µM (inactive); in [11], > 100 µM (inactive); in assay [12], 54.7 µM (inactive). Moreover, the GI50 in assay [13] was 80.4 µM (inactive); in [14] it was 42.1 µM (inactive); in assay [15], 33.7 µM (inactive); in [16], > 100 µM (inactive); in assay [17], 47 µM (inactive).

On to `CNC(SC)=C1C(=O)OC(C)(C)OC1=O`, for which the GI50 in assay [1] is > 100 µM (inactive); in assay [2] it was > 100 µM (inactive); in [3] it was 45.8 µM (inactive); in assay [4], 22.2 µM (inactive); in assay [5], 58.2 µM (inactive); in [6] it was 19.8 µM. In addition, the GI50 in assay [7] was > 100 µM (inactive); in assay [8], > 100 µM (inactive); in assay [9], > 100 µM (inactive); in assay [10], 73.3 µM (inactive); in assay [11] it was > 100 µM (inactive); in [12], 50 µM (inactive). Moreover, the GI50 in [13], in [15], in assay [18], in [19], in assay [16] and in assay [17] was > 100 µM (inactive) each time.

Turning to `COc1ccc(C2=NN(c3ccccc3)C[N+](c3ccc(C)cc3)=N2)cc1`, the GI50 was 59.7 µM (inactive) in assay [1]; 19.3 µM (inactive) in assay [2]; 31.3 µM (inactive) in assay [3]; 40.6 µM (inactive) in [4]; 35.1 µM (inactive) in assay [5]; 51.2 µM in [6]. Further, the GI50 in [7] is > 100 µM (inactive); in assay [9], 39.3 µM (inactive); in [10] it was 32 µM (inactive); in [11], 48.3 µM (inactive); in assay [12] it was 65.5 µM (inactive); in assay [13] it was 23 µM (inactive). Moreover, the GI50 in assay [14] was 13.2 µM (inactive); in assay [15] it was 58.9 µM (inactive); in assay [18], > 10 µM (inactive); in assay [16], > 100 µM (inactive); in assay [17], 38.3 µM (inactive).

For `COc1cc(C(=O)C/C(CCC(=O)Nc2ccc(Cl)cc2Cl)=N/Nc2nnc(C)n2N)ccc1O`, the GI50 in assay [1] was > 100 µM (inactive); in assay [2], > 100 µM (inactive); in assay [3] it was > 100 µM (inactive); in [4] it was > 100 µM (inactive); in assay [5], > 100 µM (inactive); in assay [6], over 100 µM. Also, the GI50 in [7], in assay [8], in assay [9], in assay [10], in assay [11] and in assay [12] was > 100 µM (inactive) each time. Moreover, the GI50 in [13], in assay [15], in [18], in assay [19], in [16] and in assay [17] was > 100 µM (inactive) throughout.

Take `CCOC(=O)C(C(=O)OCC)S(C)(=O)=O`: the GI50 in [1], in assay [2], in assay [3], in assay [4], in [5] and in [7] was > 100 µM (inactive) each time. Moreover, the GI50 in assay [8], in assay [9], in [10], in [11], in [12] and in [13] was > 100 µM (inactive) each time. Further, the GI50 in assay [14], in assay [15], in [18], in assay [16] and in assay [17] was > 100 µM (inactive) each time.

`O=C1c2ccccc2C(=O)C2C3c4ccccc4C(c4ccccc43)C12` (stereo not drawn): the GI50 in assay [1] is 28.7 µM (inactive); in assay [2] it was 10.7 µM (inactive); in assay [3] it was 45 µM (inactive); in [4], > 100 µM (inactive); in assay [5] it was 28.8 µM (inactive); in assay [6], 39 µM. Also, the GI50 is 30 µM (inactive) in assay [7]; 22.9 µM (inactive) in assay [9]; 13.5 µM (inactive) in assay [10]; 13.1 µM (inactive) in assay [11]; 50.2 µM (inactive) in assay [12]; 19.5 µM (inactive) in [13]. The GI50 in [15] was 29.8 µM (inactive); in [19] it was 15.6 µM (inactive); in assay [16], 24.5 µM (inactive); in assay [17] it was 21.8 µM (inactive).

Regarding `O=C1NC(=S)NC(=O)C1=Cc1cccc2cc3ccccc3cc12`, the GI50 in assay [1] was 3.08 µM (inactive); in assay [20], 1.71 µM (inactive); in [2], 0.378 µM (active); in assay [3], 1.88 µM (inactive); in [5], 1.95 µM (inactive); in assay [6], 1.68 µM. The GI50 in [7] was 1.84 µM (inactive); in assay [8], 1.66 µM (inactive); in [9] it was 1.67 µM (inactive); in assay [10], 1.67 µM (inactive); in assay [11] it was 2.11 µM (inactive); in assay [12], 2.12 µM (inactive). In addition, the GI50 in assay [13] was 1.76 µM (inactive); in assay [14] it was 2.28 µM (inactive); in assay [15] it was 2.57 µM (inactive); in assay [18], 2.07 µM (inactive); in assay [19], 1.59 µM (inactive); in assay [16], 1.89 µM (inactive). The GI50 in [17] is 1.95 µM (inactive).

For `CC1=Nc2ccccc2/C1=C\c1c(C)[nH]c2ccccc12`, the GI50 in assay [1] is 23.1 µM (inactive); in assay [20] it was 3.55 µM (inactive); in [2] it was 5.04 µM (inactive); in assay [3], 19.1 µM (inactive); in assay [5], 11.4 µM (inactive); in assay [6], 12.9 µM. In addition, the GI50 was 23.2 µM (inactive) in [7]; 3.73 µM (inactive) in [8]; 12.5 µM (inactive) in assay [9]; 13.1 µM (inactive) in [10]; 14.1 µM (inactive) in [11]; 17.8 µM (inactive) in assay [12]. Further, the GI50 in [13] is 12.6 µM (inactive); in assay [14], 12.4 µM (inactive); in [15] it was 16.6 µM (inactive); in [18], 14.1 µM (inactive); in [19], 18.7 µM (inactive); in assay [16] it was 16.3 µM (inactive). Further, the GI50 in assay [17] was 13.6 µM (inactive).

As to `COc1ccc2nc3c([N+](=O)[O-])ccc4c3c(c2c1)N=CN4CCN(C)C`, the GI50 in assay [1] was 3.44 µM (inactive); in assay [20] it was 12 µM (inactive); in assay [2], 0.764 µM (active); in [3], 2.34 µM (inactive); in assay [5] it was 2.44 µM (inactive); in assay [6], 2.57 µM. Also, the GI50 was 3.17 µM (inactive) in assay [7]; 5.06 µM (inactive) in assay [8]; 2.47 µM (inactive) in [9]; 3.38 µM (inactive) in [10]; 3.92 µM (inactive) in assay [11]; 2.96 µM (inactive) in assay [12]. The GI50 is 4.55 µM (inactive) in [13]; 9.02 µM (inactive) in assay [14]; 7.01 µM (inactive) in assay [15]; 2.53 µM (inactive) in assay [18]; 2.9 µM (inactive) in assay [19]; 6.34 µM (inactive) in assay [16]. Further, the GI50 in assay [17] was 2.46 µM (inactive).

As to `CO[C@H]1[C@@H](O)[C@@H](C)O[C@@H](O[C@H]2CC[C@@]3(C)[C@H](CC[C@@H]4[C@@H]3CC[C@]3(C)[C@@H](C5=CC(=O)OC5)CC[C@]43O)C2)[C@@H]1O` [ODOROSIDE H], the GI50 in [1] was 0.00288 µM (active); in assay [20] it was 0.00514 µM (active); in [2], 0.00422 µM (active); in assay [3] it was 0.0366 µM (active); in assay [5], 0.00482 µM (active); in assay [6], 0.00766 µM. The GI50 is 0.00361 µM (active) in assay [7]; 0.0127 µM (active) in [8]; 0.00498 µM (active) in [9]; 0.00689 µM (active) in [10]; 0.00441 µM (active) in [11]; 0.003 µM (active) in [12]. Besides, the GI50 in [13] was 0.00531 µM (active); in assay [14], 0.00583 µM (active); in [15] it was 0.0394 µM (active); in [18], 0.00509 µM (active); in [19], 0.00601 µM (active); in [16] it was 0.00336 µM (active). In addition, in assay [17], the GI50 is 0.00454 µM (active).

In the case of `Fc1cccc(F)c1C1SCc2nc3cc(Cl)c(Cl)cc3n21` (stereo not drawn), the GI50 in assay [1] was > 100 µM (inactive); in assay [20] it was > 100 µM (inactive); in [2], > 100 µM (inactive); in [3], > 100 µM (inactive); in assay [5], > 100 µM (inactive); in [6], over 100 µM. Besides, the GI50 is > 100 µM (inactive) in assay [7]; 42.4 µM (inactive) in [8]; > 100 µM (inactive) in assay [9]; > 100 µM (inactive) in assay [10]; > 100 µM (inactive) in assay [11]; > 100 µM (inactive) in [12]. The GI50 is > 100 µM (inactive) in assay [13]; > 100 µM (inactive) in assay [14]; > 100 µM (inactive) in assay [15]; > 100 µM (inactive) in assay [18]; 95.7 µM (inactive) in [19]; > 100 µM (inactive) in assay [16]. The GI50 in assay [17] is > 100 µM (inactive).
